Patent publication US20220409696A1, “Heparin-Associated Polypeptides and Uses Thereof” (Juvena Therapeutics, Inc., priority 2021, published 2022)

Experiments:
human myoblast cells = assay: Human myoblast differentiation (% eMyHC area), IGF2 and/or sodium butyrate; format: cell-based; conditions: IGF2 0.015 ug/mL, 96 h (FIG. 3B/3C)
Procedure: Human myoblast cells were treated with either PBS (vehicle), IGF2 (15 ng/mL), sodium butyrate, or IGF2 and sodium butyrate. Fresh media was added every 24 hours. After 96 hours, cells were pulsed for 2-5 hours with EdU (30 uM), ethanol fixed, stained with Hoescht 3342, immunostained for proliferation—as measured by the percent of cells staining positive for EdU (% EdU)-, and immunostained for differentiation—as measured by the increase in cellular area staining positive for embryonic myosin heavy chain (% eMyHC) relative to the negative controls, which received media and vehicle only. The total area of eMyHc positive cells was analyzed, and treated cells were compared to cells treated with the vehicle alone. […] Significance was determined by a p-value less than 0.05 by the one-way ANOVA Tukey Honest Significant Difference test.
FIG. 3C Bar graph quantitation of % Area eMyHC+ human myoblast in response to indicated treatment compared to IGF2 (15 ng/mL). Myoblast were cultured 96 h in the presence of IGF2 at indicated dose. Fresh media and IGF2 was added every 24 h.
Human myoblast cells were treated with either PBS (vehicle), IGF2 (15 ng/mL), sodium butyrate, or IGF2 and sodium butyrate. Fresh media was added every 24 hours. After 48 hours, cells were pulsed for 2-5 hours with EdU (30 uM), ethanol fixed, stained with Hoescht 3342, immunostained for proliferation […] as measured by the percent of cells staining positive for EdU (% EdU)-, and immunostained for differentiation—as measured by the increase in cellular area staining positive for embryonic myosin heavy chain (% eMyHC) relative to the negative controls, which received media and vehicle only.
Significance was determined by a p-value less than 0.05 by the one-way ANOVA Tukey Honest Significant Difference test.

[1] = biological target: Insulin Degrading Enzyme (IDE) (Homo sapiens, UniProt P14735); conditions: Malito et al. Cell Mol Life Sci. 2008; read-out: affinity of IDE for IGF2 as a substrate; cited from earlier work
[2] = system: 10 week old dystrophic mice (mdx); assay: D2-mdx Duchenne's muscular dystrophy model, 10 week old mice; format: in vivo; conditions: 150 ug/kg with 1.2 g/kg sodium butyrate subcutaneously every 24 hours, 14 days
Procedure: Between 3-6 weeks old, the skeletal muscle of mdx mice undergoes severe necrosis followed by an increase in the activation of satellite cells to promote muscle regeneration. Treatment with IGF2 fusion polypeptide described herein can improve the regeneration process and therefore muscle health. Mice were fed ad libitum and housed under controlled conditions of lighting (12-hour light/12-hour dark) and temperature (22-24° C.). Mice were allowed to acclimate for 3 days prior to the initiation of the experiment. During the acclimation period, the weight, forelimb and both limb grip strength as well as in vivo tetanic force were assessed to determine the baseline strength of each mouse. 10 week old dystrophic mice (mdx) were injected with the IGF2 fusion polypeptide with sodium butyrate subcutaneously for 14 days. At day 7, forelimb and both grip strength are measured as described in Example 4. BrdU was injected on days 12, 13 and 14. On days 13, 14 and 15, forelimb and both limb grip strength and in vivo tetanic force were tested, and an endurance test to determine max distance and max speed was performed using methods described in Example 4.
Mice were euthanized. The right tibialis anterior and gastrocnemius were collected, immersed in Tissue-TEK OCT and then flash frozen in a chilled isopentane bath precooled in liquid nitrogen and stored at −80° C. Tissue was sectioned and stained for Laminin to determine the cross sectional area (CSA) of muscle fibers, for eMyHC to measure new fiber formation and for BrdU to assess the proliferation rate. The left anterior tibialis and gastrocnemius were collected and flash frozen in liquid nitrogen for molecular analysis that include qPCR and western blot.

Aged human myoblasts = assay: Myogenic transcription factor expression in aged human myoblasts; format: cell-based; conditions: compared to fusion media
Procedure: (§1) RNA was isolated from each well (RNeasy Mini Kit, Qiagen) and cDNA was obtained by reverse-transcription (High Capacity Reverse Transcription Kit, Thermo Fisher Scientific). Real-time quantitative PCR was performed using QuantStudio3 (Thermo Fisher).
Aged human myoblasts were cultured in well plates. […] Cells that had been cultured with IGF2 had increases in levels of MYOG at 48 hours and levels of MYOD at 72 hours.

DM1 human myoblast = assay: Gene expression fold change in DM1 human myoblast; format: cell-based; conditions: IGF2 200 ng/mL
Procedure: Myoblasts were cultured 48 h in the presence of factors (BMP7 50 ng/mL, Butyrate 100 nM, IGF2 200 ng/mL).
Myoblasts were cultured 96 h in the presence of factors (IGF2 200 ng/mL). […] Myoblasts were cultured 48 h in the presence of factors (IGF2 200 ng/mL).
as §1
IGF2 was tested individually for its ability to promote proliferation and/or fusion of human muscle progenitor cells from an individual with myotonic dystrophy type 1 (hMD)—a muscular dystrophy caused by mutations in the DMPK1 gene. The effect of IGF2 on myogenic activity was assayed in biological triplicate across a range of concentrations centered around expected physiological levels by adding each factor to hMD myoblasts for 72 hours with daily media changes (DMEM+2% horse serum) and a second pulse of factors at the first media change. After 72 or 96 hours, cells were pulsed for 2-5 hours with EdU (30 uM), ethanol fixed, stained with Hoescht 3342, immunostained for proliferation—as measured by the percent of cells staining positive for EdU (% EdU)-, and immunostained for differentiation—as measured by the increase in cellular area staining positive for embryonic myosin heavy chain (% eMyHC) relative to the negative controls, which received media and vehicle only. Wells were imaged on a Keyence BZ-100 at 4×, the images quantified in Cell Profiler, and the statistics were computed in R. Additionally, RNA was extracted from myoblast and select transcript abundances quantified by qPCR.

[3] = 48 h, BMP7 50 ng/mL, Butyrate 100 nM

## IGF2: Human IGF2 polypeptide, amino acids 25 to 91 of SEQ ID NO. 32 (i.e. SEQ ID NO. 29)
Human myoblast cells
  % eMyHC: 10.843%
[1]
  Kd: ~100 nM
[2]
  bothlimb grip strength: effective at improving
  forelimb grip strength: effective at improving
  muscle weight: effective at improving
  total work: effective at improving
  treadmill running distance: effective at improving
  treadmill running time to exhaustion: effective at improving
Aged human myoblasts; 48 h
  MYF5 −48 h, fold change: 0.409
  MYOD1 −48 h, fold change: 0.519
Aged human myoblasts; 72 h
  MYF5 −72h, fold change: 0.708
  MYOG −72 h, fold change: 0.018
DM1 human myoblast; 48 h
  ATP1B1 expression fold change compared to FM (vehicle): 3.018
DM1 human myoblast; [3]
  MYF5 myogenic gene expression fold change compared to FM (vehicle): 0.730
  MYODI myogenic gene expression fold change compared to FM (vehicle): 1.252
  MYOG myogenic gene expression fold change compared to FM (vehicle): 2.972
DM1 human myoblast; 96 h
  CKM expression fold change compared to vehicle: 5.165
  MYH3 expression fold change compared to vehicle: 14.833
